Here are results for six molecules from publication PMC7281419, “New Conjugates of Polyhydroxysteroids with Long-Chain Fatty Acids from the Deep-Water Far Eastern Starfish Ceramaster patagonicus and Their Anticancer Activity” (Marine Drugs, 2020).

Data set [1] deals with herpes simplex virus type 1 (HSV-1). Also on record: method as in PMID 20523000. Particulars: in vitro; cited from earlier work.
In data set [2] the test system is human liver carcinoma HepG2 cells. Also on record: method as in PMID 20523000. The note with it: in vitro; cited from earlier work.
For data set [3], the system named is MDA-MB-231 cells. The data set can be described thus: Soft agar colony formation assay. Type of data set: cell-based. Particulars: Homo sapiens, 336 h, 14 days. Here is the method: (§1) The formation of colonies is one of the most stringent characteristics for malignant transformation in cells. In the present study the soft agar assay was used to investigate the effect of compounds 1–4 on capability of cancer cells to form colonies.
(§2) Figure 4 The effect of compounds 1–4 on colony formation in human cancer cells. MDA-MB-231 (A) or HCT 116 cells (B) (2.4 × 10^4) were treated with or without investigated compounds (20 µM) and applied onto 0.3% Basal Medium Eagle (BME) agar containing 10% FBS, 2 mM L-glutamine, and 25 µg/mL gentamicin. After 14 days of incubation, the number of colonies was evaluated under a microscope with the aid of the ImageJ software program. Results are expressed as the mean ± standard deviation (SD). The asterisks (** p < 0.01, *** p < 0.001) indicate a significant decrease in colony number of cancer cells treated by compounds compared with control.
(§3) To estimate the effects of 1–4 on colony formation (phenotype expression), MDA-MB-231 and HCT 116 cells (2.4 × 10^4 cells/200 µL) were treated equivalent volume of DMSO (control) or with compounds 1–4 (20 µM) in 1 mL of 0.3% Basal Medium Eagle (BME) agar containing 10% FBS, 2 mM L-glutamine, and 25 µg/mL gentamicin. The cultures were maintained in a 37 °C, 5% CO2 incubator for 14 days, and the cell colonies were scored using a Motic AE 20 microscope (XiangAn, Xiamen, China) and ImageJ software bundled with 64-bit Java 1.8.0_112 (NIH, Bethesda, MD, USA).

Data set [4] has as its system HCT 116 cells. In words: Soft agar colony formation assay. Type of data set: cell-based. Particulars: Homo sapiens, 336 h, 14 days. As for the experimental part:
as §1, §2, §3

The next data set has as its system JB6 Cl41 cells. In words: MTS cell viability assay (cytotoxic / cytostatic activity). Type of data set: cell-based, mouse. Particulars: Mus musculus, 72 h incubation, read-out: concentration that caused 50% inhibition of growth (IC50). Here is the method: (§4) At the first stage of biological activity evaluation, the cytotoxicity of compounds 1–4 against mouse normal epidermal JB6 Cl41 cells, human breast cancer MDA-MB-231 cells, and colorectal carcinoma HCT 116 cells was determined by MTS assay, which is based on the cleavage of (3-(4,5-dimethylthiazol-2-yl)-5-(3-carboxymethoxyphenyl)-2-(4-sulfophenyl)-2H-tetrazolium) (MTS reagent) into a formazan product soluble in tissue culture medium.
(§5) That is why the cytostatic activity of compounds 1–4 was determined against JB6 Cl41, MDA-MB-231, and HCT 116 cell lines for 24, 48, and 72 h. […] The cytostatic effect of 2 was more prominent in colorectal carcinoma HCT 116 cells.
(§6) Figure 3 The cytostatic activity of compounds 1–4 against normal epidermal JB6 Cl41 cells, breast cancer MDA-MB-231 cells, and colorectal carcinoma HCT 116 cells. (A) JB6 Cl41, (B) MDA-MB-231, or (C) HCT 116 cells were treated with compounds 1–4 at concentrations of 1–100 µM for 24, 48, and 72 h. Cell viability was estimated using the MTS assay. Data are represented as the mean ± SD as determined from triplicate experiments.
(§7) To determine the cytotoxicity of compounds 1–4, JB6 Cl41, MDA-MB-231, and HCT 116 cells (1.0 × 10^4) were seeded in 200 µL of complete MEM/5% FBS, DMEM/10% FBS, and McCoy’s 5A/10% FBS medium, respectively, and incubated for 24 h at 37 °C in 5% CO2 incubator. The attached cells were incubated with fresh medium containing various concentrations of 1–4 (0–100 µM) or equivalent volume of DMSO (control) for additional 24 h. Subsequently, the cells were incubated with 15 µL MTS reagent for 3 h, and the absorbance of each well was measured at 490/630 nm using Power Wave XS microplate reader (BioTek, Winooski, VT, USA). All experimental conditions were assessed in triplicate.
(§8) To determine the effect of compounds 1–4 on cell proliferation, the tested cell lines (8 × 10^3 cells/200 µL) were treated with tested compounds at concentrations of 1, 10, 50, and 100 µM or equivalent volume of DMSO (control) and incubated for additional 24, 48, and 72 h at 37 °C in 5% CO2. MTS reagent (20 µL) was added to each well, and the cells were incubated for additional 3 h in 5% CO2 incubator. Absorbance was measured at 490/630 nm by microplate reader. All experimental conditions were assessed in triplicate.

Experiment in data set [5]: as above
Type of data set: cell-based, mouse. Particulars: mouse, JB6 Cl41 cells (normal epidermal), 100 µM, 24 h incubation, read-out: suppression of cell viability. As for the experimental part: as §4, §5, §6, §7, §8

Data set [6] concerns MDA-MB-231 cells. In words: Wound healing (cell migration) assay. It is filed as cell-based, human. Particulars: 20 µM, 48 h. From the text:
(§9) The metastasis process is proven to be the leading cause of cancer-related death. Metastasis is a multistep process that includes migration and invasion of cancer cells, hallmarks of malignancy. Therefore, we investigated the ability of compounds 1–4 to inhibit the migration of breast cancer MDA-MB-231 cells and colorectal carcinoma HCT 116 cells with high metastatic potential. […] Compounds 1, 3, and 4 prevented HCT 116 cell migration by 36%, 30%, and 24%, respectively (Figure 5). […]
(§10) Figure 5 The effect of compounds 1–4 on migration of human cancer cells. MDA-MB-231 (A,B) and HCT 116 (C,D) cells migration distance was estimated by measuring the width of the wound and expressed as a percentage of each control for the mean of wound closure area. All experiments were repeated at least three times in each group (n = 18 for control and each compound, n—quantity of photos). The magnification of representative photos is ×10. Results are expressed as the mean ± standard deviation (SD). The asterisks (* p < 0.05, ** p < 0.01, *** p < 0.001) indicate a significant decrease in migration of cells treated with compounds compared with the control.
(§11) MDA-MB-231 and HCT 116 cells (3 × 10^5 cells/mL) were seeded into six-well plates and grown to 80% confluence for 24 h. After removing the culture medium, the cells’ monolayer was scraped with a 200 µL sterile pipette tip to create a straight scratch. Then, MDA-MB-231 and HCT 116 cells were treated with equivalent volume of DMSO (control) or 1–4 at concentration of 20 µM and incubated for 48 h. All experiments were conducted in triplicate for each group. For the image analysis, cell migration into the wound area was photographed at the stages of 0 and 48 h using a Motic AE 20 microscope and ImageJ software. The cell migration distance was estimated by measuring the width of the wound and expressed as a percentage of each control for the mean wound closure area.

Data set [7] concerns HCT 116 cells. In words: Wound healing (cell migration) assay. Type of data set: cell-based, human. Particulars: 20 µM, 48 h.
Excerpt: as §9, §10, §11

In data set [8] the test system is MDA-MB-231 cells. The data set can be described thus: MTS cell viability assay (cytotoxic / cytostatic activity). Particulars: for IC50: Homo sapiens, 72 h incubation, read-out: concentration that caused 50% inhibition of growth (IC50). Type of data set: cell-based, human. Here is the method:
as §4, §5, §6, §7, §8
On the technique in general: Tetrazolium assays rely on reduction of a dye to a coloured formazan, in cell work by metabolically active cells.

Experiment in data set [9]: as above
It is filed as cell-based, human. The note with it: human, 100 µM, 24 h incubation, read-out: suppression of cell viability. Here is the method: as §4, §5, §6, §7, §8

Data set [10] relates to HCT 116 cells. Described as above. It is filed as cell-based, human. Particulars: for IC50: Homo sapiens, 72 h incubation, read-out: concentration that caused 50% inhibition of growth (IC50). As for the experimental part:
as §4, §5, §6, §7, §8

The subject of a further data set is colon cancer HCT15. Also on record: method as in PMID 15104487. The note with it: cited from earlier work.
The test system of the next data set is human lung cancer A549. Also on record: method as in PMID 15104487. Particulars: cited from earlier work.
Another data set relates to CNS cancer XF498. Also on record: method as in PMID 15104487. The note with it: cited from earlier work.
The subject of the next data set is melanoma SK-MEL-2. Also on record: method as in PMID 15104487. Particulars: SK-MEL-2 cells; cited from earlier work.
The test system of the next data set is ovarian cancer SK-OV-3. Also on record: method as in PMID 15104487. Particulars: SK-OV-3 cells; cited from earlier work.
The mark [11] stands for this setting: HCT 116 cells (colorectal carcinoma).
The mark [12] stands for this setting: MDA-MB-231 cells (breast cancer).

Read-outs that look alike come from different tables or passages of the source.

For the molecule `CCCCC/C=C\CCCCCCCCCCCCC(=O)OC[C@@H](C)CCC[C@@H](C)[C@H]1[C@@H](O)[C@H](O)[C@@H]2[C@]1(C)CC[C@@H]1[C@@]3(C)CC[C@H](O)C[C@@H]3[C@@H](O)[C@@H](O)[C@]12O` [(25S)-5α-cholestane-3β,6α,7α,8,15α,16β-hexaol-26-yl 14′Z-eicosenoate], the “inhibitory activity against HSV-1” value in data set [1] is recorded as “did not possess inhibitory activity”. In addition, the “inhibitory activity against HepG2 cells” value in [2] was “did not possess inhibitory activity”.

As a reminder, the inhibition is the change of the read-out against control, counted positive when it falls. Take `CCCCCCC=CCCCCC=CCCCC(=O)OCC(C)CCCC(C)C1C(O)C(O)C2C3CC(O)C4CC(O)CCC4(C)C3CCC12C` [Compound 1, (25S)-5α-cholestane-3β,6β,15α,16β-tetraol-26-yl 5′Z,11′Z-octadecadienoate]: the inhibition at 20 µM in the data set with MDA-MB-231 cells [3] was determined as 17%; with HCT 116 cells [4], 20%. Further, the IC50 with JB6 Cl41 cells came to 81 µM; in the data set with MDA-MB-231 cells [8] it was 74 µM; with HCT 116 cells [10], 73 µM. Moreover, the cytotoxicity at 24 h, 100 µM in data set [5], in data set [9] (setting [11]) and in data set [9] (setting [12]) was less than 15% throughout. In the data set on MDA-MB-231 cells [6], the “prevention of cell migration compared to control” value turned out to be 42%. Moreover, the “prevention of cell migration” value in the data set with HCT 116 cells [7] is 36%.

With `CCCCCCC=CCCCCCCCCCC(=O)OCC(C)CCCC(C)C1C(O)C(O)C2C3CC(O)C4CC(O)CCC4(C)C3CCC12C` [Compound 2, (25S)-5α-cholestane-3β,6β,15α,16β-tetraol-26-yl 11′Z-octadecenoate], the inhibition at 20 µM with MDA-MB-231 cells [3] was determined as 26%; with HCT 116 cells [4], 27%. The IC50 in the data set with JB6 Cl41 cells was found to be 40 µM; with MDA-MB-231 cells [8], 33 µM; in the data set with HCT 116 cells [10], 31 µM. Further, the cytotoxicity at 24 h, 100 µM in data set [5], in data set [9] (setting [11]) and in data set [9] (setting [12]) was less than 15% throughout. The “prevention of cell migration compared to control” value in the data set on MDA-MB-231 cells [6] was 50%. Further, the “prevention of cell migration” value with HCT 116 cells [7] worked out at 73%.

In the case of `CCCCCCCCC=CCCCCC=CCCCC(=O)OCC(C)CCCC(C)C1C(O)C(O)C2C3CC(O)C4CC(O)CCC4(C)C3CCC12C` [Compound 3, (25S)-5α-cholestane-3β,6β,15α,16β-tetraol-26-yl 5′Z,11′Z-eicosadienoate], the inhibition at 20 µM turned out to be 15% in the data set on MDA-MB-231 cells [3] and 18% in the data set on HCT 116 cells [4]. Also, the IC50 in the data set with JB6 Cl41 cells was found to be 79 µM; in the data set with MDA-MB-231 cells [8] it was 73 µM; in the data set with HCT 116 cells [10], 71 µM. Besides, the cytotoxicity at 24 h, 100 µM in data set [5], in [9] (setting [11]) and in [9] (setting [12]) was less than 15% throughout. Also, the “inhibitory activity against cell migration (in words)” value in the data set on MDA-MB-231 cells [6] is reported as “moderate inhibitory activity”. Besides, the “prevention of cell migration” value in the data set on HCT 116 cells [7] was 30%.

Consider `CCCCCCCCCCCCC=CCCCCCC(=O)OCC(C)CCCC(C)C1C(O)C(O)C2C3CC(O)C4CC(O)CCC4(C)C3CCC12C` [Compound 4, (25S)-5α-cholestane-3β,6β,15α,16β-tetraol-26-yl 7′Z-eicosenoate], for which the inhibition at 20 µM with MDA-MB-231 cells [3] is 10%; in the data set with HCT 116 cells [4], 16%. The cytotoxicity at 24 h, 100 µM in data set [5], in data set [9] (setting [11]) and in data set [9] (setting [12]) was less than 15% throughout. In addition, the “inhibitory activity against cell migration (in words)” value with MDA-MB-231 cells [6] is listed as “moderate inhibitory activity”. Besides, in the data set with HCT 116 cells [7], the “prevention of cell migration” value is reported as 24%. In addition, the “toxicity against cell line” value in the data set on MDA-MB-231 cells [8] (three days of treatment) and in the data set on HCT 116 cells [10] (three days of treatment) was “non-toxic” throughout.

For the molecule `CC(C)[C@H](/C=C/[C@@H](C)[C@H]1C[C@@H](O)[C@H]2[C@@H]3C[C@H](O)[C@H]4C[C@@H](O)CC[C@]4(C)[C@H]3CC[C@@]21C)CO` [certonardosterol D2], the “effective dose that inhibited viability of 50% cells (ED50)” value was 0.01 µg/mL with colon cancer HCT15; 0.15 µg/mL with human lung cancer A549; 0.07 µg/mL in the data set with CNS cancer XF498; 0.09 µg/mL in the data set on melanoma SK-MEL-2; 0.08 µg/mL in the data set with ovarian cancer SK-OV-3.
